Source: the supplement of paper PMC11208160

Assay: recombinant UMI read abundance after kanamycin selection (control-corrected) (log10(CPM+1)); higher = more efficient recombination; extreme values may be limits of the assay; sequences stand for … in AGTGCAGAGAAAATCGGCCAGTTTTCTCTGCCTGCAGTCCGCATGCCGTGGGACCCCTTGGGTTCTAACCTGTTGCCTAGATTTATGCAGCGGACTGCCTTTCTCCCAAAGTGATAAACCGG…AGGTTGGTTTCACT; site = the 11-nt donor
How it was run: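 Values are reported as log10(CPM+1), obtained by converting sequencing counts to CPM, averaging replicates and scaling by control-derived factors. The counts came from recombinant UMIs amplified by PCR across the donor–target junction. These UMIs came from a pooled Escherichia coli screen of donor and donor-binding-loop pairs for the IS621 bridge recombinase, plated with IPTG (0.07 mM) plus kanamycin or left unselected, in two replicates each.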
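Also: IS621 bridge recombinase in Escherichia coli cells against a fixed T5 target plasmid.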

Row | Sequence | recombinant UMI read abundance (log10)
1 | AGTGCGACATGGACCGGTTTTCCCGGTAATCCGTATTTGCA (site AGTGCGACTTG) | 1.38
2 | AGTGGAACATGGACCGGTTTTCCCGGTAATCCGTATTTGTC (site AGTGGAACTGA) | 2.3
3 | AGTGGCCCATGGACCGGTTTTCCCGGTAATCCGTATTTGCG (site AGTGGCCCTCG) | 0.0207
4 | AGTGGCGCATGGACCGGTTTTCCCGGTAATCCGTATTTGTC (site AGTGGCGCTGA) | 2.86
5 | AGTTACGCATGGACCGGTTTTCCCGGTAATCCGTATTTGAT (site AGTTACGCTAT) | 1.72
6 | AGTTCCCCATGGACCGGTTTTCCCGGTAATCCGTATTTGTA (site AGTTCCCCTTA) | 0.124
7 | AGTTCCCCATGGACCGGTTTTCCCGGTAATCCGTATTTGTA (site CGTTCCCCTTA) | 0.025
8 | AGTTCCCCATGGACCGGTTTTCCCGGTAATCCGTATTTGTA (site GGTTCCCCTTA) | 0.013
9 | AGTTCCCCATGGACCGGTTTTCCCGGTAATCCGTATTTGTA (site TGTTCCCCTTA) | 0.0167
10 | ATAAGAACATGGACCGGTTTTCCCGGTAATCCGTATTTGGG (site ATAAGAACTCC) | 0.884
11 | ATAAGATCATGGACCGGTTTTCCCGGTAATCCGTATTTGAA (site ATAAGATCTTT) | 2.8
12 | ATAAGGACATGGACCGGTTTTCCCGGTAATCCGTATTTGAC (site ATAAGGACTGT) | 2.34
13 | ATAAGGACATGGACCGGTTTTCCCGGTAATCCGTATTTGAC (site ATAAGGCCTGT) | 0
14 | ATAAGGACATGGACCGGTTTTCCCGGTAATCCGTATTTGAC (site ATAAGGGCTGT) | 2.31
15 | ATAAGGACATGGACCGGTTTTCCCGGTAATCCGTATTTGAC (site ATAAGGTCTGT) | 1.93
16 | ATAAGGCCATGGACCGGTTTTCCCGGTAATCCGTATTTGGC (site ATAAGGCCTGA) | 0
17 | ATAAGGCCATGGACCGGTTTTCCCGGTAATCCGTATTTGGC (site ATAAGGCCTGC) | 2.31
18 | ATAAGGCCATGGACCGGTTTTCCCGGTAATCCGTATTTGGC (site ATAAGGCCTGG) | 0
19 | ATAAGGCCATGGACCGGTTTTCCCGGTAATCCGTATTTGGC (site ATAAGGCCTGT) | 0.68
20 | ATACAAGCATGGACCGGTTTTCCCGGTAATCCGTATTTGAC (site ATACAAGCTGT) | 2.38
21 | ATACCACCATGGACCGGTTTTCCCGGTAATCCGTATTTGGT (site ATACCACCTAC) | 0.0125
22 | ATACCGTCATGGACCGGTTTTCCCGGTAATCCGTATTTGGG (site ATACCGTCTCC) | 0.0133
23 | ATACTATCATGGACCGGTTTTCCCGGTAATCCGTATTTGTT (site ATACTATCTAA) | 2.54
24 | ATAGCATCATGGACCGGTTTTCCCGGTAATCCGTATTTGCA (site ACAGTATCTTG) | 1.65
25 | ATAGCATCATGGACCGGTTTTCCCGGTAATCCGTATTTGCA (site ATAGCATCTTG) | 2.9

Row | Sequence | recombinant UMI read abundance (log10)
26 | ATAGGTGCATGGACCGGTTTTCCCGGTAATCCGTATTTGGC (site ATAGGTGCTGC) | 3.17
27 | ATAGTATCATGGACCGGTTTTCCCGGTAATCCGTATTTGTA (site ACAGTATCTTG) | 0.029
28 | ATAGTATCATGGACCGGTTTTCCCGGTAATCCGTATTTGTA (site ATAGTATCTTA) | 3.14
29 | ATAGTCGCATGGACCGGTTTTCCCGGTAATCCGTATTTGCG (site ATAGTCGCTCG) | 1.37
30 | ATAGTCGCATGGACCGGTTTTCCCGGTAATCCGTATTTGCG (site CTAGTCGCTCG) | 0.303
31 | ATAGTCGCATGGACCGGTTTTCCCGGTAATCCGTATTTGCG (site GTAGTCGCTCG) | 0.0129
32 | ATAGTCGCATGGACCGGTTTTCCCGGTAATCCGTATTTGCG (site TTAGTCGCTCG) | 0.00819
33 | ATAGTCTCATGGACCGGTTTTCCCGGTAATCCGTATTTGAG (site ATAGTCTCTCT) | 2
34 | ATAGTGGCATGGACCGGTTTTCCCGGTAATCCGTATTTGGC (site ATAGTGGCTGC) | 2.85
35 | ATAGTTTCATGGACCGGTTTTCCCGGTAATCCGTATTTGCA (site ACAGTATCTTG) | 1.49
36 | ATAGTTTCATGGACCGGTTTTCCCGGTAATCCGTATTTGCA (site ATAGTTTCTTG) | 2.47
37 | ATATAGACATGGACCGGTTTTCCCGGTAATCCGTATTTGCT (site ATATAGACTAG) | 2.72
38 | ATATCGCCATGGACCGGTTTTCCCGGTAATCCGTATTTGAT (site ATATCGCCTAT) | 0.284
39 | ATATCTGCATGGACCGGTTTTCCCGGTAATCCGTATTTGTA (site ATATCTGCTTA) | 2
40 | ATATTCACATGGACCGGTTTTCCCGGTAATCCGTATTTGTT (site ATATTCACTAA) | 1.75
41 | ATCAAGACATGGACCGGTTTTCCCGGTAATCCGTATTTGCA (site AGGAAGACTTG) | 0.783
42 | ATCAAGACATGGACCGGTTTTCCCGGTAATCCGTATTTGCA (site ATCAAGACTTG) | 2.31
43 | ATCAAGGCATGGACCGGTTTTCCCGGTAATCCGTATTTGTC (site ATCAAGGCTGA) | 1.53
44 | ATCAATACATGGACCGGTTTTCCCGGTAATCCGTATTTGCA (site ATCAATACTTG) | 1.44
45 | ATCATTGCATGGACCGGTTTTCCCGGTAATCCGTATTTGGC (site ATCATTGCTGC) | 2.13
46 | ATCCAAGCATGGACCGGTTTTCCCGGTAATCCGTATTTGAA (site ATCCAAGCTAT) | 0.379
47 | ATCCAAGCATGGACCGGTTTTCCCGGTAATCCGTATTTGAA (site ATCCAAGCTCT) | 0.445
48 | ATCCAAGCATGGACCGGTTTTCCCGGTAATCCGTATTTGAA (site ATCCAAGCTGT) | 0.751
49 | ATCCAAGCATGGACCGGTTTTCCCGGTAATCCGTATTTGAA (site ATCCAAGCTTT) | 1.29
50 | ATCCAAGCATGGACCGGTTTTCCCGGTAATCCGTATTTGGG (site ATCCAAGCTCA) | 0.0113

Row | Sequence | recombinant UMI read abundance (log10)
51 | ATCCAAGCATGGACCGGTTTTCCCGGTAATCCGTATTTGGG (site ATCCAAGCTCC) | 0.365
52 | ATCCAAGCATGGACCGGTTTTCCCGGTAATCCGTATTTGGG (site ATCCAAGCTCG) | 0.0298
53 | ATCCAAGCATGGACCGGTTTTCCCGGTAATCCGTATTTGGG (site ATCCAAGCTCT) | 0.00791
54 | ATCCAATCATGGACCGGTTTTCCCGGTAATCCGTATTTGAG (site ATCCAAACTCT) | 0.00423
55 | ATCCAATCATGGACCGGTTTTCCCGGTAATCCGTATTTGAG (site ATCCAACCTCT) | 0.0188
56 | ATCCAATCATGGACCGGTTTTCCCGGTAATCCGTATTTGAG (site ATCCAAGCTCT) | 0.0117
57 | ATCCAATCATGGACCGGTTTTCCCGGTAATCCGTATTTGAG (site ATCCAATCTCT) | 1.04
58 | ATCCAGGCATGGACCGGTTTTCCCGGTAATCCGTATTTGAG (site ATCCAAGCTCT) | 0.547
59 | ATCCAGGCATGGACCGGTTTTCCCGGTAATCCGTATTTGAG (site ATCCACGCTCT) | 0.013
60 | ATCCAGGCATGGACCGGTTTTCCCGGTAATCCGTATTTGAG (site ATCCAGGCTCT) | 0
61 | ATCCAGGCATGGACCGGTTTTCCCGGTAATCCGTATTTGAG (site ATCCATGCTCT) | 0.382
62 | ATCCAGGCATGGACCGGTTTTCCCGGTAATCCGTATTTGCC (site ATCCAGGCTGG) | 0
63 | ATCCATACATGGACCGGTTTTCCCGGTAATCCGTATTTGAC (site ATCAATACTGT) | 0
64 | ATCCATACATGGACCGGTTTTCCCGGTAATCCGTATTTGAC (site ATCCATACTGT) | 1.77
65 | ATCCATACATGGACCGGTTTTCCCGGTAATCCGTATTTGAC (site ATCGATACTGT) | 0
66 | ATCCATACATGGACCGGTTTTCCCGGTAATCCGTATTTGAC (site ATCTATACTGT) | 0
67 | ATCCCCTCATGGACCGGTTTTCCCGGTAATCCGTATTTGGA (site ATCCCCTCTTC) | 1.95
68 | ATCCCGGCATGGACCGGTTTTCCCGGTAATCCGTATTTGAG (site CGAAGCCCTAG) | 0
69 | ATCCGACCATGGACCGGTTTTCCCGGTAATCCGTATTTGTC (site ATCCGACCTGA) | 0
70 | ATCCTTTCATGGACCGGTTTTCCCGGTAATCCGTATTTGAC (site AACCTTTCTGT) | 0
71 | ATCCTTTCATGGACCGGTTTTCCCGGTAATCCGTATTTGAC (site ACCCTTTCTGT) | 0
72 | ATCCTTTCATGGACCGGTTTTCCCGGTAATCCGTATTTGAC (site AGCCTTTCTGT) | 0
73 | ATCCTTTCATGGACCGGTTTTCCCGGTAATCCGTATTTGAC (site ATCCTTTCTGT) | 0
74 | ATCGAATCATGGACCGGTTTTCCCGGTAATCCGTATTTGAA (site ATCGAATCTTT) | 2.58
75 | ATCGCCTCATGGACCGGTTTTCCCGGTAATCCGTATTTGGG (site ATCGCCTCTCC) | 0.29
